These results are taken from PubChem BioAssay (NCI).

Several values for one entry are separate records, joined by “and”; a condition that tells them apart may be missing. Identical values can stand only once.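 Results reflect a 48-hour exposure of cells in 96-well plates to compound at five concentrations. The concentration for 50% growth inhibition is given as GI50. TGI: concentration producing complete growth inhibition.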 Some results are limits rather than exact numbers.

Among the test systems are DU-145 prostate; EKVX NSCLC; KM12 colon; MOLT-4 leukemia; OVCAR-3 ovarian; OVCAR-4 ovarian; SK-OV-3 ovarian; SNB-75 CNS; SW-620 colon; UACC-62 melanoma.
Holding throughout (test): NCI anticancer screen, dose series, 48 h

As to `O=C(O)C1C2C=CC(O2)C1C(=O)NCc1ccccn1` (stereo unspecified), the TGI in the test with DU-145 prostate, in the test on EKVX NSCLC, in the test with KM12 colon, in the test with MOLT-4 leukemia, with OVCAR-3 ovarian and in the test on OVCAR-4 ovarian was > 100 µM throughout. For the same compound, the TGI in the test on SK-OV-3 ovarian, with SNB-75 CNS, with SW-620 colon and in the test on UACC-62 melanoma was > 100 µM in each case.

In the case of `C=C(c1nc2ccc(Cl)cc2[nH]c1=O)C(O)c1ccc(C(O)C(=O)c2nc3ccc(Cl)cc3[nH]c2=O)cc1` (stereo unspecified), the TGI with DU-145 prostate, with EKVX NSCLC, in the test on KM12 colon, in the test with MOLT-4 leukemia, in the test on OVCAR-3 ovarian and with OVCAR-4 ovarian was > 100 µM in each case. In addition, the TGI in the test on SK-OV-3 ovarian, in the test on SNB-75 CNS, in the test with SW-620 colon and in the test with UACC-62 melanoma was > 100 µM in each case.

As for `O=C1c2cccc(NCCCNCCO)c2C(=O)c2cccc(NCCCNCCO)c21`, the TGI in the test on DU-145 prostate is 7.44 µM; with EKVX NSCLC it was 6.24 µM and 9.38 µM; in the test on KM12 colon, 4.43 µM and 5.84 µM; in the test with MOLT-4 leukemia it was 13.1 µM and 8.29 µM; in the test on OVCAR-3 ovarian, 5.65 µM and 9.94 µM; in the test with OVCAR-4 ovarian it was 2.59 µM and 6.09 µM. In addition, the TGI is 7.23 µM with SK-OV-3 ovarian; 2.58 µM and 6.58 µM in the test on SNB-75 CNS; 3.41 µM and 7.57 µM in the test with SW-620 colon; 3.25 µM and 4.33 µM with UACC-62 melanoma. The GI50 in the test with OVCAR-4 ovarian is 0.747 µM and 2.55 µM; with SNB-75 CNS it was 0.912 µM and 2.44 µM.

Regarding `N#Cc1c(NN)n(C2OC(CO)C(O)C2O)c2ncnc(N)c12` (stereo unspecified), the GI50 in the test with DU-145 prostate was 0.0375 µM; in the test on EKVX NSCLC, 0.209 µM; in the test on KM12 colon, 0.0874 µM; in the test on MOLT-4 leukemia, 0.095 µM; in the test with OVCAR-3 ovarian, 0.028 µM; in the test with OVCAR-4 ovarian, 0.0538 µM. The GI50 with SK-OV-3 ovarian was 0.198 µM; in the test on SNB-75 CNS, 0.388 µM; in the test with SW-620 colon, 0.0254 µM; with UACC-62 melanoma it was 0.126 µM. The TGI with DU-145 prostate is 6.26 µM; with KM12 colon, 1.72 µM; with MOLT-4 leukemia it was 0.402 µM; with OVCAR-3 ovarian, 0.299 µM; in the test with OVCAR-4 ovarian, 3.24 µM; in the test on SK-OV-3 ovarian, 0.722 µM. In addition, the TGI with SNB-75 CNS came to 9.56 µM; in the test with SW-620 colon, 1.18 µM; with UACC-62 melanoma, 0.308 µM.

Take `CN(C)N=Nc1ccc(NC=O)cc1`: the TGI in the test on DU-145 prostate, in the test on EKVX NSCLC, with KM12 colon, with MOLT-4 leukemia, with OVCAR-3 ovarian and in the test on OVCAR-4 ovarian was > 100 µM in each case. In addition, the TGI with SK-OV-3 ovarian, in the test on SNB-75 CNS, in the test on SW-620 colon and with UACC-62 melanoma was > 100 µM each time.

On to `N#CC(=C1C=CC(=NO)C=C1)c1ccccc1`, for which the GI50 is 1.58 µM in the test with DU-145 prostate; 5.31 µM in the test with EKVX NSCLC; 0.355 µM in the test with KM12 colon; 3.04 µM in the test on MOLT-4 leukemia; 0.458 µM in the test on OVCAR-3 ovarian; 3.02 µM in the test on OVCAR-4 ovarian. The GI50 is 5.75 µM in the test with SK-OV-3 ovarian, 2.14 µM in the test with SNB-75 CNS, 0.473 µM with SW-620 colon and 1.49 µM in the test on UACC-62 melanoma. Moreover, the TGI with DU-145 prostate was found to be 4.05 µM; in the test on EKVX NSCLC it was 21.4 µM; in the test on KM12 colon, 1.2 µM; with MOLT-4 leukemia, 18.4 µM; in the test on OVCAR-3 ovarian, 4.38 µM; in the test on OVCAR-4 ovarian it was 15.4 µM. In addition, the TGI was > 65 µM in the test with SK-OV-3 ovarian, 8.99 µM in the test on SNB-75 CNS, 2.36 µM in the test on SW-620 colon and 7.41 µM in the test on UACC-62 melanoma.

Turning to `NC(=Nc1c([N+](=O)[O-])cnc2ccccc12)N1CCOCC1`, the TGI in the test with DU-145 prostate, with EKVX NSCLC, in the test on KM12 colon, in the test with MOLT-4 leukemia, in the test with OVCAR-3 ovarian and in the test on OVCAR-4 ovarian was > 100 µM each time. Further, the TGI in the test on SK-OV-3 ovarian, in the test with SNB-75 CNS, in the test with SW-620 colon and in the test on UACC-62 melanoma was > 100 µM in each case.

In the case of `OC[C@H]1C[C@](O)(c2ccc(Cl)cc2)[C@@H](c2ccc(Cl)cc2)O1`, the GI50 with DU-145 prostate was 22.1 µM; in the test with EKVX NSCLC, 18.2 µM; with KM12 colon it was 20.6 µM; in the test on MOLT-4 leukemia, 17.6 µM; in the test with OVCAR-3 ovarian, 26.2 µM; in the test on OVCAR-4 ovarian, 32 µM. Besides, the GI50 was 39.4 µM with SK-OV-3 ovarian, 22.9 µM in the test on SNB-75 CNS, 27.3 µM with SW-620 colon and 16 µM in the test with UACC-62 melanoma. Besides, the TGI in the test with DU-145 prostate is 56.9 µM; in the test with EKVX NSCLC, 48.2 µM; in the test with KM12 colon it was 51 µM; in the test with MOLT-4 leukemia, 60.1 µM; with OVCAR-3 ovarian it was 58.9 µM; in the test with OVCAR-4 ovarian, > 100 µM. Further, the TGI was > 100 µM with SK-OV-3 ovarian, 87.7 µM in the test on SNB-75 CNS, > 100 µM with SW-620 colon and 31.6 µM in the test on UACC-62 melanoma.
